Data: patent US10723723B2, “Substituted bicycle heterocyclic derivatives useful as ROMK channel inhibitors” (BRISTOL-MYERS SQUIBB COMPANY, priority 2016, dated 2020)

What was measured:
hERG channels = hERG channels (Homo sapiens (Human), UniProt Q12809); assay: hERG Manual Patch Clamp Assay (HEK 293 cells stably expressing hERG channels); format: cell-based; conditions: human, HEK 293 cells stably expressing hERG channels, pH 7.4
Procedure: hERG electrophysiology assay: The experimental compounds were assessed for hERG activity on HEK 293 cells stably expressing hERG channels using patch clamp technique. Coverslips plated with hERG expressing cells were placed in the experimental chamber and were perfused with a solution composed of (in mM): 140 NaCl, 4 KCl, 1.8 CaCl2), 1 MgCl2, 10 Glucose, 10 HEPES (pH 7.4, NaOH) at room temperature. Borosilicate patch pipettes had tip resistances of 2-4 Mohms when filled with an internal solution containing: 130 KCl, 1 MgCl2, 1 CaCl2), 10 EGTA, 10 HEPES, 5 ATP-K2 (pH 7.2, KOH). The cells were clamped at −80 mV in whole cell configuration using an Axopatch 200B (Axon instruments, Union City, Calif.) patch clamp amplifier controlled by pClamp (Axon instruments) software. Upon formation of a gigaseal, the following voltage protocol was repeatedly (0.05 Hz) applied to record tail currents: depolarization step from −80 mV to +20 mV for 2 seconds followed by a hyperpolarization step to −65 mV (3 seconds) to elicit tail currents. Compounds were applied after stabilization of tail current. First, tail currents were recorded in presence of extracellular solution alone (control) and subsequently, in extracellular solution containing increasing compound concentrations. Each compound concentration was applied for 2-5 minutes. The percentage inhibition at each concentration was calculated as reduction in peak tail current with respect to the peak tail current recorded in the presence of control solution. Data analysis was performed in a custom made template. The percent inhibitions at different concentrations were plotted to obtain a concentration response curve, which was subsequently fitted with a four parameter equation to calculate hERG IC50 value.
A lower hERG % Inhibition value indicates less inhibition of the hERG current

hROMK (human Kir1.1) = hROMK (human Kir1.1) (Homo sapiens (Human), UniProt P48048); assay: Thallium Flux Assay (FluxOR, CHO T-Rex hROMK stable cell line); format: cell-based; conditions: CHO T-Rex hROMK cells, 10-point concentration response curve; read-out: Human ROMK TH Flux IC50
Sequence of hROMK (human Kir1.1) (P48048 whole entry): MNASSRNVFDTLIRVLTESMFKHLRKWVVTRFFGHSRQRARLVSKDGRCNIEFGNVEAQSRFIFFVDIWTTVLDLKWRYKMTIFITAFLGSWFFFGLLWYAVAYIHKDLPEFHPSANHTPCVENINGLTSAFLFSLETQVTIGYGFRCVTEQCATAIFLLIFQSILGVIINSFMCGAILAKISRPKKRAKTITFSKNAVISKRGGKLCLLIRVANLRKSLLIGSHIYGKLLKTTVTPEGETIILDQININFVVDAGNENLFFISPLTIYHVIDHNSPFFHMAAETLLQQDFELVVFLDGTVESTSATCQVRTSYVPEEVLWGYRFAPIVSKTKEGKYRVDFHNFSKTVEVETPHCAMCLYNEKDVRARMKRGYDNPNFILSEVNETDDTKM

Sequence of hERG channels (Q12809 whole entry): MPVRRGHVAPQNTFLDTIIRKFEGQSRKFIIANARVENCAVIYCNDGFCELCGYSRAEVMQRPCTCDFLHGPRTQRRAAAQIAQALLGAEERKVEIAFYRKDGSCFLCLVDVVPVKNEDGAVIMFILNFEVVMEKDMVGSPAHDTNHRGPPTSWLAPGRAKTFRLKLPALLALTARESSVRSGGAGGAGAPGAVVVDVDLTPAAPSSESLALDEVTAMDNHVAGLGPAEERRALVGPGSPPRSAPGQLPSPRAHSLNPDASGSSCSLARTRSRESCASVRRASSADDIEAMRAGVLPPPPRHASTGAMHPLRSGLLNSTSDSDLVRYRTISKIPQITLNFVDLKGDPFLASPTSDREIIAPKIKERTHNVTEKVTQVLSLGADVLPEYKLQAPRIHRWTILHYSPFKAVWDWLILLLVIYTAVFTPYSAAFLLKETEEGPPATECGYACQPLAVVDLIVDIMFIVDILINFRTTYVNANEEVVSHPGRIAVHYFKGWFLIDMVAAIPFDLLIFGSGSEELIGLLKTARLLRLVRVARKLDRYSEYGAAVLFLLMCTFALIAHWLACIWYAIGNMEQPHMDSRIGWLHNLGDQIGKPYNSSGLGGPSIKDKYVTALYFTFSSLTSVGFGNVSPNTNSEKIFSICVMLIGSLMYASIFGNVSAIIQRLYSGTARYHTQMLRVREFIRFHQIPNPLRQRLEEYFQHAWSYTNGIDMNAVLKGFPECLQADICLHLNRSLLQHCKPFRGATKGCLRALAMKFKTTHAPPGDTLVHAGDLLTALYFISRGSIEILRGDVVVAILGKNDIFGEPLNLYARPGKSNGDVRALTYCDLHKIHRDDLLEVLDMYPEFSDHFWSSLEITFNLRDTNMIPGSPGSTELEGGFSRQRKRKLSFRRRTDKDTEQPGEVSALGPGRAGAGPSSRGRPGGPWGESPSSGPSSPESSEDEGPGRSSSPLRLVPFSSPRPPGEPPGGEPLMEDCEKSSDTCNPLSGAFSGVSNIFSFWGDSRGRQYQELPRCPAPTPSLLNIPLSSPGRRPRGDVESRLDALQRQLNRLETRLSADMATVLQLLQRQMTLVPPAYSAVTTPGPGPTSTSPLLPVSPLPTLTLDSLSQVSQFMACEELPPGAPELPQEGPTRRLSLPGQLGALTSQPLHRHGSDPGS

Q: How did the inhibition at 1 µM (hERG channels) turn out when `Cc1cc(-c2ccc(CNCC(O)c3ccc4c(c3C)COC4=O)cn2)ncc1C#N` (single isomer, unassigned) [Example 4-I, 5′-(((2-hydroxy-2-(4-methyl-1-oxo-1,3-dihydroisobenzofuran-5-yl)ethyl)amino)methyl)-4-methyl-[2,2′-bipyridine]-5-carbonitrile] was run?
A: The inhibition at 1 µM was 22%.

Q: With `Cc1c(C(O)CN(C)Cc2ccc(-c3ccc(C#N)c(F)c3)nc2)ccc2c1COC2=O` (single isomer, unassigned) [Example 21-I, 2-fluoro-4-(5-(((2-hydroxy-2-(4-methyl-1-oxo-1,3-dihydroisobenzofuran-5-yl)ethyl)(methyl)amino)methyl)pyridin-2-yl)benzonitrile] as the compound, how does the inhibition at 1 µM (hERG channels) read?
A: Its inhibition at 1 µM is 68%.

Q: For `Cc1cc(-c2ccc(CN(C)CC(O)c3ccc4c(c3C)COC4=O)cn2)ncc1C#N` (single isomer, unassigned) [Example 22-I, 5′-(((2-hydroxy-2-(4-methyl-1-oxo-1,3-dihydroisobenzofuran-5-yl)ethyl)(methyl)amino)methyl)-4-methyl-[2,2′-bipyridine]-5-carbonitrile], which inhibition at 1 µM (hERG channels) is on record?
A: The inhibition at 1 µM was 9.5%.

Q: `Cc1c(C(O)CN(C)Cc2ccc(-n3ccc4c(C#N)cccc43)cc2)ccc2c1COC2=O` (single isomer, unassigned) [Example 28-I, 1-(4-(((2-hydroxy-2-(4-methyl-1-oxo-1,3-dihydroisobenzofuran-5-yl)ethyl)(methyl)amino)methyl)phenyl)-1H-indole-4-carbonitrile] was tested. Which inhibition at 1 µM (hERG channels) did it give?
A: Its inhibition at 1 µM is 94%.

Q: What about the IC50 (hROMK (human Kir1.1)) of the same compound?
A: The IC50 was 0.18 µM.

Q: `Cc1cc(-c2ccc(CN(C)CC(O)c3ccc4c(c3C)COC4=O)cc2)ncc1C#N` (single isomer, unassigned) [Example 31-I, 6-(4-(((2-hydroxy-2-(4-methyl-1-oxo-1,3-dihydroisobenzofuran-5-yl)ethyl)(methyl)amino)methyl)phenyl)-4-methylnicotinonitrile] was tested. Which inhibition at 1 µM (hERG channels) did it give?
A: The inhibition at 1 µM was 39%.

Q: And the IC50 (hROMK (human Kir1.1))?
A: Its IC50 is 0.04 µM.

Q: Which results are given for `Cc1c([C@@H](O)CNCc2cnn(-c3cc(F)c4oc(=O)n(C)c4c3)c2)ccc2c1COC2=O` (single isomer, unassigned) [Example 107]?
A: inhibition at 1 µM (hERG channels): 20%; IC50 (hROMK (human Kir1.1)): 0.027 µM

Q: How did the inhibition at 1 µM (hERG channels) turn out when `Cc1cc(-n2cc(CNC(C)C(O)c3ccc4c(c3C)COC4=O)cn2)ncc1C#N` (single isomer, unassigned) [Example 176-I, 6-(4-(((1-hydroxy-1-(4-methyl-1-oxo-1,3-dihydroisobenzofuran-5-yl)propan-2-yl)amino)methyl)-1H-pyrazol-1-yl)-4-methylnicotinonitrile] was run?
A: The inhibition at 1 µM was 44%.

Q: And the IC50 (hROMK (human Kir1.1))?
A: Its IC50 is 0.004 µM.

Q: Which inhibition at 1 µM (hERG channels) does the source give for `Cc1c(C(O)CNCc2ccc(-c3ccc(C#N)c(F)c3)nc2)ccc2c1COC2=O` (stereo not shown) [Example 3-I, 2-fluoro-4-(5-(((2-hydroxy-2-(4-methyl-1-oxo-1,3-dihydroisobenzofuran-5-yl)ethyl)amino)methyl)pyridin-2-yl)benzonitrile] here?
A: The inhibition at 1 µM was 66%.

Q: Which inhibition at 1 µM (hERG channels) does the source give for `Cc1c(C(O)CNCc2ccc(-c3ccc(C#N)c(F)c3)cc2)ccc2c1COC2=O` (stereo not shown) [Example 10-I, 3-fluoro-4′-(((2-hydroxy-2-(4-methyl-1-oxo-1,3-dihydroisobenzofuran-5-yl)ethyl)amino)methyl)-[1,1′-biphenyl]-4-carbonitrile] here?
A: The inhibition at 1 µM was 92%.

Q: And the IC50 (hROMK (human Kir1.1))?
A: Its IC50 is 0.053 µM.

Q: For `Cc1c(C(O)CN(C)Cc2ccc(-n3cc(C#N)c4ccccc43)cc2)ccc2c1COC2=O` (stereo not shown) [Example 12-I, 1-(4-(((2-hydroxy-2-(4-methyl-1-oxo-1,3-dihydroisobenzofuran-5-yl)ethyl)(methyl)amino)methyl)phenyl)-1H-indole-3-carbonitrile], which inhibition at 1 µM (hERG channels) is on record?
A: The inhibition at 1 µM was 99%.

Q: And the IC50 (hROMK (human Kir1.1))?
A: Its IC50 is 0.078 µM.

Q: `Cc1c(C(O)CN(C)Cc2cnc(-c3ccc(C#N)c(F)c3)nc2)ccc2c1COC2=O` (stereo not shown) [Example 19-I, 2-fluoro-4-(5-(((2-hydroxy-2-(4-methyl-1-oxo-1,3-dihydroisobenzofuran-5-yl)ethyl)(methyl)amino)methyl)pyrimidin-2-yl)benzonitrile] was tested. Which inhibition at 1 µM (hERG channels) did it give?
A: The inhibition at 1 µM was 33%.

Q: And the IC50 (hROMK (human Kir1.1))?
A: The IC50 was 0.15 µM.

Q: For `Cc1c([C@@H](O)CNCc2cnn(-c3ccc4oc(=O)n(C)c4c3)c2)ccc2c1COC2=O` [Example 81, (R)-5-(4-(((2-hydroxy-2-(4-methyl-1-oxo-1,3-dihydroisobenzofuran-5-yl)ethyl)amino)methyl)-1H-pyrazol-1-yl)-3-methylbenzo[d]oxazol-2(3H)-one], which inhibition at 1 µM (hERG channels) is on record?
A: The inhibition at 1 µM was 6%.

Q: How did the inhibition at 1 µM (hERG channels) turn out when `CCOC(=O)c1nn(-c2cc(C)c(C#N)cn2)cc1CNC[C@H](O)c1ccc2c(c1C)COC2=O` [Example 98, ethyl (R)-1-(5-cyano-4-methylpyridin-2-yl)-4-(((2-hydroxy-2-(4-methyl-1-oxo-1,3-dihydroisobenzofuran-5-yl)ethyl)amino)methyl)-1H-pyrazole-3-carboxylate] was run?
A: The inhibition at 1 µM was 54%.

Q: `Cc1c([C@@H](O)CNCc2ccc(-n3cc(C#N)c(C4CC4)n3)nc2)ccc2c1COC2=O` [Example 116, (R)-3-cyclopropyl-1-(5-(((2-hydroxy-2-(4-methyl-1-oxo-1,3-dihydroisobenzofuran-5-yl)ethyl)amino)methyl)pyridin-2-yl)-1H-pyrazole-4-carbonitrile] was tested. Which inhibition at 1 µM (hERG channels) did it give?
A: The inhibition at 1 µM was 76%.

Q: `Cc1c([C@@H](O)CN(CCCC(F)(F)F)Cc2ccc(-c3ccc4oc(=O)n(C)c4c3)nc2)ccc2c1COC2=O` [Example 163, (R)-5-(5-(((2-hydroxy-2-(4-methyl-1-oxo-1,3-dihydroisobenzofuran-5-yl)ethyl)(4,4,4-trifluorobutyl)amino)meth-yl)pyridin-2-yl)-3-methylbenzo[d]oxazol-2(3H)-one] was tested. Which IC50 (hROMK (human Kir1.1)) did it give?
A: Its IC50 is 0.26 µM.

Q: For `Cc1cc(-n2cc(CNC[C@H](O)c3ccc4c(c3C)COC4=O)cn2)cc(C)n1` [Example 164, (R)-5-(2-(((1-(2,6-dimethylpyridin-4-yl)-1H-pyrazol-4-yl)methyl)amino)-1-hydroxyethyl)-4-methylisobenzofuran-1(3H)-one], which IC50 (hROMK (human Kir1.1)) is on record?
A: Its IC50 is 0.28 µM.

Q: How did the IC50 (hROMK (human Kir1.1)) turn out when `Cc1c([C@@H](O)CNCc2cnn(-c3cnccn3)c2)ccc2c1COC2=O` [Example 165, (R)-5-(1-hydroxy-2-(((1-(pyrazin-2-yl)-1H-pyrazol-4-yl)methyl)amino)ethyl)-4-methylisobenzofuran-1(3H)-one] was run?
A: Its IC50 is 0.47 µM.

Q: `Cc1c([C@@H](O)CNCc2cnn(-c3ccnc4c3ccn4C)c2)ccc2c1COC2=O` [Example 166, (R)-5-(1-hydroxy-2-(((1-(1-methyl-1H-pyrrolo[2,3-b]pyridin-4-yl)-1H-pyrazol-4-yl)methyl)amino)ethyl)-4-methylisobenzofuran-1(3H)-one] was tested. Which IC50 (hROMK (human Kir1.1)) did it give?
A: The IC50 was 1.3 µM.

Q: For `Cc1cc(-n2cc(CNC[C@H](O)c3ccc4c(c3C)COC4=O)c3ncccc32)ncc1C#N` [Example 168, (R)-6-(3-(((2-hydroxy-2-(4-methyl-1-oxo-1,3-dihydroisobenzofuran-5-yl)ethyl)amino)methyl)-1H-pyrrolo[3,2-b]pyridin-1-yl)-4-methylnicotinonitrile], which IC50 (hROMK (human Kir1.1)) is on record?
A: The IC50 was 0.12 µM.

Q: `Cc1c([C@@H](O)CNCc2cnn(-c3ccc(-c4noc(=O)n4C)cn3)c2)ccc2c1COC2=O` [Example 171, (R)-3-(6-(4-(((2-hydroxy-2-(4-methyl-1-oxo-1,3-dihydroisobenzofuran-5-yl)ethyl)amino)methyl)-1H-pyrazol-1-yl)pyridin-3-yl)-4-methyl-1,2,4-oxadiazol-5(4H)-one] was tested. Which IC50 (hROMK (human Kir1.1)) did it give?
A: Its IC50 is 1 µM.

Q: Which IC50 (hROMK (human Kir1.1)) does the source give for `Cc1cc(-n2cc(CNC[C@@H](c3ccc4c(c3C)COC4=O)N(C)C)cn2)ncc1C#N` [Example 174, (R)-6-(4-(((2-(dimethylamino)-2-(4-methyl-1-oxo-1,3-dihydroisobenzofuran-5-yl)ethyl)amino)methyl)-1H-pyrazol-1-yl)-4-methylnicotinonitrile] here?
A: The IC50 was 11.6 µM.
